{"source": "patent US20060116397A1", "about": "“Use of saquinavir as a radiation sensitizer” (The Trustees of the University of Pennsylvania, priority 2004, published 2006)", "key": {"[1]": {"test_system": "Akt", "assay": "Western blot analysis of Akt phosphorylation in SQ2OB head-and-neck cancer cell line", "assay_type": "cell-based, human", "conditions": "SQ2OB cells, 25 μM saquinavir, within 20 minutes, Western blot (FIG. 3)", "excerpt": "Using Western blot analysis, a human head-and-neck cancer cell line, SQ2OB, containing a constitutively-active EGFR receptor and thus, increased signaling through PI3K, was examined for Akt phosphorylation."}, "[2]": {"test_system": "cells in tissue culture", "assay": "Toxicity to cells in tissue culture", "assay_type": "cell-based"}, "[3]": {"test_system": "T24 cells", "assay": "Clonogenic assay, radiation sensitization (surviving fraction after 2 Gy)", "assay_type": "cell-based", "protocol": "Cultures of cells in log growth phase were counted and plated in 60-mm dishes containing 4 ml of media. The cells were allowed to attach and saquinavir was added to cultures at least one hour prior to irradiation. Cells were irradiated with a Mark I cesium irradiator (J. L. Shepherd, San Fernando, Calif.) at a dose rate of 1.6 Gy/min. Colonies were stained and counted 10-14 days after irradiation. A light box was used to assist in counting colonies. The surviving fraction was calculated by dividing the number of colonies formed by the number of cells plated times plating efficiency (Table 1). Each point value represents the mean surviving fraction from at least six replicate dishes."}, "[4]": {"test_system": "Akt", "assay": "Western blot of Akt phosphorylation in white blood cells of HIV patients", "assay_type": "in vivo, human", "conditions": "HIV patients taking saquinavir vs HIV patients not using saquinavir", "excerpt": "As a proof of principle, it was examined whether there was down-regulation of Akt in HIV patients who are being actively treated with HPIs. Blood samples were obtained from HIV patients on courses of various combinations of drugs. WBCs were isolated and stained for Akt using a Western Blot."}}, "note": "“Also recorded” adds a separate entry of the source.", "data": [{"smiles": "CC(C)(C)NC(=O)[C@@H]1C[C@@H]2CCCC[C@@H]2CN1C[C@@H](O)[C@H](Cc1ccccc1)NC(=O)[C@H](CC(N)=O)NC(=O)c1ccc2ccccc2n1", "note": "[saquinavir]", "values": [{"measurement": "Akt phosphorylation at Ser 473 and at Thr 308", "setting": "[1]", "value": "down-regulation of Akt phosphorylation at Ser 473 and at Thr 308"}, {"measurement": "toxicity to cells in tissue culture", "setting": "[2]", "value": "toxic to cells in tissue culture"}, {"measurement": "difference in cell kill (enhanced kill) vs radiation alone", "setting": "[3]; T24, 30 fractions of 2 Gy", "value": "~5", "unit": "log"}, {"measurement": "surviving fraction after 2 Gy (SF2)", "setting": "[3]; T24 cells, 10 μM saquinavir + 2 Gy radiation, control 56%", "value": 36, "unit": "%"}, {"measurement": "saquinavir SF2", "setting": "[3]; T24 cells, saquinavir added at least one hour prior to irradiation, colonies counted 10-14 days after, mean of at least six dishes, control 0.560 +/− 0.061", "value": "0.380 +/− 0.168"}, {"measurement": "Akt phosphorylation in white blood cells", "setting": "[4]", "value": "decreased Akt phosphorylation; also recorded: lower levels of Akt phosphorylation"}]}]}
